{
  "source": "patent US10201558B2",
  "about": "“Compositions of selenoorganic compounds and methods of use thereof” (Alltech, Inc., priority 2014, dated 2019)",
  "key": {"RCAN1": {"system": "RCAN1", "assay": "QRT-PCR of RCAN1 and RCAN1.1 mRNA in control and FOXO4 KD IMR-32 cells", "format": "cell-based, human", "conditions": "24 hours", "experimental": "(§1) IMR-32 cells were cultured on 12-well plates for 24 hours and then incubated with FOXO4 siRNA lentiviruses (SC-29650V, Santa Cruz) or control siRNA lentiviruses (sc-108080, Santa Cruz) in the presence of Polybrene (5 μg/ml, Santa Cruz) for 24 hours according to the manufacturer's protocol. These lentiviral siRNA-transfected cells were amplified in normal media for 3 days and then incubated with puromycin for 9-14 days to obtain the stable Control KD (stably transfected with the control siRNAs) and FOXO4KD (stably transfected with Foxo4 siRNAs) cells. These control and Foxo4 KD cells were subjected to cell survival, mitochondrial potential and RNA analysis.\n(§2) Human IMR-32 cells were seeded on gelatinized 6-well (6.5×10^5 cells/well) or 24-well (1.3×10^5 cells/well) plates. Cells were treated with control (0 ppb) or various compounds for 6 hours or 24 hours. Total RNA from these cells was isolated using Trizol (Invitrogen) according to the manufacturer's protocol, and then incubated with DNase I to remove any potential contaminated genomic DNA. Then RNA samples were subjected to real-time PCR analysis using the Applied-Bioscience's RT kit and predesigned Taqman probes (Invitrogen), as described previously (Lan et al EMBO J 2003). The mRNA levels of UCP1, UCP2, UCP3, SLC25A27 (UCP4), SLC25A14 (UCP5), PSEN1, Nicastrin, GSK3B, MAPK11-14, PPARG, APOE, RCAN1, RCAN1.1, G6PC, INSR, IGF1R and FOXO4 were measured. Three to six samples were analyzed in each treatment group. Data were normalized by Actin B (ACTB) or Glyceraldehyde Phosphate Dehydrogenase (GAPDH) mRNA levels in each sample and are presented as mean±SEM of 3-6 samples.\nTo investigate whether Compound C can regulate transcription of RCAN1 in a dose-dependent and FOXO4-dependent manner, normal control cells and FOXO4 KD cells were treated with two doses of Compound C for 24 hours, and subjected to QRT-PCR analysis. First a specific RCAN1 Taqman probe that can recognize all RCAN1 mRNA isoforms was used to determine if Compound C can regulate the transcription of RCAN1.\nTo further determine whether Compound C can regulate the transcription of RCAN1.1 mRNA, the above Compound C-treated RNA samples were subjected to QRT-PCR using a specific RCAN1.1 mRNA Taqman probe."}, "MAPK14": {"system": "MAPK14", "assay": "QRT-PCR of MAPK14 mRNA in control and FOXO4 KD IMR-32 cells", "format": "cell-based, human", "conditions": "24 hours", "experimental": "as §1, §2\nNormal control cells and FOXO4KD cells were incubated with two doses of Compound C for 24 hours, and subjected to QRT-PCR analysis of the MAPK11-14 genes. The relative mRNA expression of all four MAPK genes in normal control IMR-32 cells was assessed. […] Data in Compound C-treated control and FOXO4 KD cells were normalized by their levels in control and FOXO4KD cells, respectively. Mean±SEM of indicated number of samples in the bar graphs. […]"}, "phosphorylated-p38": {"system": "phosphorylated-p38", "assay": "Western blot of phosphorylated-p38 in APP/PS1 mouse brains", "format": "in vivo", "conditions": "APP/PS1 mice, Compound C diet vs control diet", "experimental": "Male APPΔNLh/ΔNLh×PS1P246 L/246 L knock-in model mice of Alzheimer's disease (abbreviated APP/PS1) were genotyped using standard primers for human APP (Amyloid Precursor Protein) and human PS1 (PSEN1). These APP/PS1 mice starting at the age of 6 months, were fed either a control diet containing normal levels of selenium (0.3 ppm from plant and inorganic selenium salt sources) or an experimental diet containing Compound C (the control diet to which was added 1 ppm Se from Compound C) for 6 months. […]\nFrozen hemispheres of control- and Compound C-treated APP/PS1 mice were weighed and homogenized in PBS buffer, and then subsequently extracted with RIPA buffer (Sigma) containing complete proteinase and phosphatase inhibitors (Fisher Scientific). Protein levels in the samples were determined by micro-BCA protein analysis according to the manufacturer's protocol. […] Positive signals on the membrane blots were detected using Amersham's enhanced chemiluminescence Western Blotting Prime Detection reagents (GE healthcare Lifescience, Pittsburgh, Pa.). Images of these luminescence signals on the membrane blots were captured using the LI-COR Odyssey Fc Image system (Lincoln, Nebr.). Protein band densities in Western blots were determined using NIH Image J software, and then normalized by Actb levels in each samples to obtain the protein levels."}, "[1]": {"conditions": "FOXO4KD cells, 75 ppb and 150 ppb"}},
  "note": "Entries after “also recorded” stand apart in the source; their conditions may differ.",
  "data": [
    {"compound": "C[Se]C[C@H]1O[C@@H](n2cnc3c(N)ncnc32)C(O)C1O", "note": "(stereo in doubt) [Compound C, 5′-deoxy-5′-methylselenoadenosine]", "values": [
      {"measurement": "RCAN1.1 mRNA expression", "setting": "RCAN1; [1]", "value": "not significantly affected"},
      {"measurement": "total RCAN1 mRNA levels", "setting": "RCAN1; [1]", "value": "not significantly altered"},
      {"measurement": "total RCAN1 mRNA levels", "setting": "RCAN1; control cells (control siRNA lentiviruses), 75 ppb and 150 ppb", "value": "dose-dependent decrease; also recorded: significantly attenuated"},
      {"measurement": "RCAN1.1 mRNA expression", "setting": "RCAN1; control cells, 150 ppb", "value": "inhibited"},
      {"measurement": "MAPK14 mRNA levels", "setting": "MAPK14; [1]", "value": "none of the mRNA levels of the four MAPK genes in FOXO4KD cells were significantly altered"},
      {"measurement": "MAPK14 mRNA levels", "setting": "MAPK14; control KD cells, 75 ppb", "value": "trend towards decreased"},
      {"measurement": "MAPK14 mRNA levels", "setting": "MAPK14; control KD cells, 150 ppb", "value": "significantly decreased"},
      {"measurement": "phosphorylated-p38 protein levels in the brains", "setting": "phosphorylated-p38", "value": "reduced; also recorded: decreased"}
    ]}
  ]
}
